Data from patent US20240043528A1, “NANOBODY-OGA FUSIONS AND USES THEREOF” (President and Fellows of Harvard College, priority 2020, published 2024).

Tests used:
Assay type in all cases: cell-based, human
c-Fos-Ubc-Flag-EPEA = assay: Deglycosylation of c-Fos-Ubc-Flag-EPEA (anti-EPEA enrichment, anti-O-GlcNAc immunoblot); conditions: HEK 293T cells
Protocol: For immunoprecipitation of proteins with the C-terminal EPEA tag, cell lysates with equal amounts of protein were diluted with PBS and incubated with C-tag affinity matrix (Thermo Scientific) for 1 h at room temperature, with end-to-end rotation, following the manufacturer's instructions. After washing three times with PBS buffer, the enriched proteins were eluted with SDS sample buffer and subjected to SDS-PAGE.
For immunoblotting analysis, proteins were transferred to a nitrocellulose membrane using iBlot (Thermo Scientific). […] All IR fluorescence western blot images are converted into grayscale images by Fiji ImageJ. The unsaturated exposure of immunoblot images was used for quantification with the appropriate loading controls as standards. […]
The ability of nUbc-split OGA to selectively remove an O-GlcNAc modification from Ubc-tagged c-Fos was examined. c-Fos is a core component of the AP-1 transcription factor complex, which will dimerize with c-Jun and drive downstream transcription (Hess, J., Angel, P. & Schorpp-Kistner, M. AP-1 subunits: quarrel and harmony among siblings. J. Cell Sci. 2004, 117, 5965-73). […] The O-GlcNAc modification level was evaluated by immunoblotting with an anti-O-GlcNAc antibody (FIG. 4C). Ratios were quantified from the protein level and O-GlcNAc level.

global O-GlcNAcylation = assay: Global O-GlcNAcylation level in whole cell lysate, anti-O-GlcNAc (RL2) immunoblot; conditions: HEK 293T whole cell lysate, OSMI-4b 25 μM for 30 h
Protocol: After 36-48 h of transfection, cells were harvested and washed with PBS once. Cells were lysed with M-PER lysis buffer containing 1× protease inhibitor cocktail and 10 μM Thiamet-G unless otherwise noted. Protein concentrations were determined by the BCA assay kit (G-Biosciences, 786) on a multi-mode microplate reader FilterMax F3 (Molecular Devices LLC, Sunnyvale, CA).
For immunoblotting analysis, proteins were transferred to a nitrocellulose membrane using iBlot (Thermo Scientific). Membranes were blocked with Tris buffered saline containing 0.1% Tween-20 and 5% BSA and incubated with the primary antibodies (1:1000 dilution) and the secondary antibodies (1:10,000 dilution) sequentially. Immunoblot images were captured by Azure Imager C600. Analysis of immunoblots was conducted with Fiji ImageJ. All IR fluorescence western blot images are converted into grayscale images by Fiji ImageJ. The unsaturated exposure of immunoblot images was used for quantification with the appropriate loading controls as standards. Statistical analysis of the data was performed with Prism 8, using data from at least three independent experiments.

endogenous c-Jun = assay: O-GlcNAcylation status of endogenous c-Jun (chemoenzymatic labeling, Biotin-IP); conditions: HEK 293T cells expressing c-Fos-Ubc
Protocol: Purification of GalT1 (Y289L) enzyme and labeling of O-GlcNAcylated proteins with GalNAz were performed according to the procedure of Hsieh-Wilson and co-workers (Thompson, J. W., Griffin, M. E. & Hsieh-Wilson, L. C. Methods for the Detection, Study, and Dynamic Profiling of O-GlcNAc Glycosylation. Methods Enzymol. 2018, 598, 101-135). Briefly, cell samples in 6-well plates or 15-cm dishes were harvested and washed by PBS once. The lysis buffer (PBS with 2% SDS) was added into cell pellets and heated for 5 min at 95° C., followed by the sonication to sheer DNA. Protein concentrations were determined by BCA assay. Cell lysates were reduced and alkylated with 25 mM DTT at 95° C. for 5 min and 50 mM iodoacetamide at room temperature for 1 h respectively. Proteins were precipitated by the methanol/chloroform solution (aqueous phase:CH3OH:CHCl3=4:4:1) and resuspended in 1% SDS, 20 mM HEPES (pH 7.9) buffer with a concentration of 3.75 mg/mL. For 150 μg proteins, H2O (49 μL), 2.5×GalT labeling buffer (80 μL, final concentrations: 50 mM NaCl, 20 mM HEPES, 2% NP-40, pH 7.9), 100 mM MnCl2 (11 μL), 500 μM UDP-GalNAz (10 μL), 2 mg/mL GalT1 (Y289L) (10 μL) were added into cell lysates orderly. The reaction was gently rotated at 4° C. for at least 20 h and the proteins were precipitated as described above. The proteins were resuspended with 1% SDS, PBS for the further click chemistry. […]

[1] = test system: AP-1 transcriptional activity; assay: AP-1 responsive luciferase reporter assay in c-Fos-Ubc co-transfected HEK 293T cells; conditions: c-Fos-Ubc-Flag-EPEA co-transfected HEK 293T cells, 48 h; OSMI-4b 25 μM
Protocol: For luciferase assay in the OGT inhibition experiment, HEK 293T cells co-transfected with c-Fos-Ubc-Flag-EPEA plasmid and AP-1 responsive luciferase reporter were treated with either DMSO or 25 μM OSMI-4b for 48 h before luciferase activity detection. […] Luciferase reporter assays were performed using Luciferase Assay System (Promega, E1500) according to manufacturer's protocols. At least three independent biological replicates were run using this assay.

## OSMI-4b
c-Fos-Ubc-Flag-EPEA
  O-GlcNAc modification level on c-Fos-Ubc: deglycosylated
Global O-GlcNAcylation
  global O-GlcNAcylation level: dramatic reduction of global O-GlcNAcylation level
Global O-GlcNAcylation; listed as OSMI-4b9
  global O-GlcNAcylation level: dramatic reduction
Endogenous c-Jun
  O-GlcNAc modification on endogenous c-Jun: reduced O-GlcNAc modification
[1]
  AP-1 transcriptional activity (luciferase): significantly upregulated
